Some results are limits rather than exact numbers.

Data set [1] is described as follows: repeated oral administration toxicity test, SMP-114 concentration in serum (HPLC-fluorescence). The format is in vivo. Conditions: both sexes, Crj:CD(SD), rat, rats. As to the method:
Next, a repeated oral administration toxicity test on Crj:CD(SD) rats aged 5 weeks was carried out for each of one month and six months (once-a-day oral administration in both cases). SMP-114 was repeatedly administered to male and female SD strain rats (10 rats per group) for one month in a dose of each of 10, 30, 100 and 300 mg/kg, and its subacute toxicity and the recovery by one month of the suspension of the administration were investigated. In addition, the time-course of SMP-114 concentration in serum after each of one run of the administration and 30 days of the repeated administration was investigated. […] In addition, the time-course of SMP-114 concentration in serum after each of one run of the administration, 3 months of the repeated administration and 6 months of the repeated administration was investigated. The SMP-114 concentration in serum was measured by an HPLC-fluorescence method (fluorescence wavelength: 319 nm) after extracting SMP-114 from each sample with diethyl ether under slight acidic conditions (pH 4.7).

Data set [2] can be described thus: repeated administration test on healthy male Caucasians (7 days), serum concentration by LC-MS/MS. The format is in vivo, human. Conditions: for AUC(0-t): serum, oral, read-out: AUC0-24 at the steady state. As to the method: A repeated administration test on healthy male Caucasians of 18 to 50 years old was carried out. Using the SMP-114 tablets and placebo tablets, 80 mg or 120 mg of each of the placebo and SMP-114 was orally administered once a day for 7 days by a placebo controlled double-blind method (at each dose, 8 cases of SMP-114 administration and 2 cases of placebo administration: 20 subjects in total).
The SMP-114 concentration in serum was measured by a LC-MS/MS method by employing the following pretreatment and measuring conditions.
1) To each of the standard sample solutions for calibration curve, the QC sample and the samples to be analyzed was added 10 mL of an internal standard solution (d5-SMP-114 5 ng/mL), and stirred.
2) To the resulting mixture were added 1 mL of 100 mmol/L ammonium acetate buffer (pH 4.0) and then 6 mL of diethyl ether, and stirred for 10 minutes, followed by centrifugation at 4° C. and 3000 rpm for 10 minutes.
3) The supernatant was transferred to a glass tube and concentrated to dryness in a nitrogen stream (40° C.) in an aluminum-blocked thermostatic chamber.
4) To the residue was added 120 μL of 50 vol % acetonitrile and the residue was redissolved with an ultrasonic bath and a Vortex mixer.
5) The solution obtained by the redissolution was transferred to a filter and centrifuged at 5000 rpm for 3 minutes.
6) The filtrate was transferred to an auto-sampler vial to obtain a sample solution for measurement.
LC-MS/MS measurement was carried out under the following conditions. However, parameters (e.g. gas volume and collision voltage) whose optimum values were variable depending on the condition of a mass spectrometer were properly changed.
Mobile phase: eluent A; 0.3 vol % acetic acid eluent B; acetonitrile
• Flow rate: 0.2 ml/min • Analytical column: Puresil C18, 2.1 mm i.d.×150 mm, […] (Waters) • Auto-sampler tray: 4° C. • Column temperature: 35° C. • Valve switching: 0-1.5 min. discard, 1.5-9.0 min. ion source for SMP-114, 9.0-15.0 min. discard • Injecting volume: […] MS/MS Conditions • Ionization method: electro-ion spray method, positive mode • MS/MS mode: SRM (selected reaction monitoring) • Monitor ion: SMP-114 Q1 m/z 395.1→Q3 m/z 199.0 (±25 eV) d5-SMP-114 Q1 m/z 400.2→Q3 m/z 204.0 (−25 eV) • Total scan time: 0.6 second (SMP-114 and d5-SMP-114) • Ionization voltage: 4.5 kV for SMP-114 • Sheath gas: 70 psi (nitrogen gas) • Auxiliary gas: 30 units (nitrogen gas) • Capillary tube temperature: 230° C. • Collision gas: 2.1-2.2 mT (argon) • Multiplier: 1300 V

For data set [3], the system named is mice with collagen arthritis. Description: antiarthritic effect in mice with collagen arthritis. The format is in vivo. Conditions: considered on the basis of the rat adjuvant arthritis and mouse collagen arthritis results. As to the method:
On the other hand, it is known that 3-[(1S)-1-(2-fluorobiphenyl-4-yl)ethyl]-5-{[amino(morpholin-4-yl)methylene]amino}isoxazole (hereinafter referred to also as “compound (I)” or “SMP-114”) is useful as, for example, an excellent medicament for treating autoimmune diseases, inflammatory diseases and the like.
It was 5 mg/kg (once-a-day oral administration) in the case of mice with collagen arthritis (F. Nishikaku, “Annals of the Rheumatic Diseases”, vol. 61 supplement 1, p. 194 (2002)).

Data set [4] is described as follows: tolerance test by a single administration, healthy male Caucasians. The settings on record: single oral dose 10, 20, 40, 60, 80, 100, 120 or 140 mg, suspension, fasted. Type of data set: in vivo, human.
Data set [5] is described as follows: repeated administration test on healthy male Japanese (7 days). Type of data set: in vivo, human. As to the method: AUC0-24 level of the agent in its repeated administration to humans A repeated administration test on healthy male Japanese of 20 to 40 years old was carried out. Using the SMP-114 tablets and placebo tablets, 80 mg of each of the placebo and SMP-114 was orally administered once a day for 7 days by a placebo controlled double-blind method (8 cases of SMP-114 administration and 2 cases of placebo administration: 10 subjects in total).

Data set [6] deals with mice with collagen arthritis. The settings on record: cited from earlier work.

As to `C[C@@H](c1ccc(-c2ccccc2)c(F)c1)c1cc(/N=C(/N)N2CCOCC2)on1` [SMP-114, 3-[(1S)-1-(2-fluorobiphenyl-4-yl)ethyl]-5-{[amino(morpholin-4-yl)methylene]amino}isoxazole], the AUC(0-t) in data set [1] (oral, calculated for a dose of 5 mg/kg, read-out: AUC0-24 for the exhibition of efficacy) was 2710 to 3580 ng·h/mL; in data set [1] (6 mg/kg oral once a day for 6 months, read-out: AUC0-24), 3250 ng·h/mL; in data set [1] (10 mg/kg oral once a day for one month, read-out: AUC0-24), 7160 ng·h/mL; in data set [2] (human, 80 mg treated group, once a day for 7 days, healthy male Caucasians), 10600 ng·h/mL; in data set [2] (human, 120 mg treated group, once a day for 7 days, healthy male Caucasians) it was 16700 ng·h/mL; in data set [5] (human, serum, 80 mg oral once a day for 7 days, tablets, read-out: AUC0-24 at a steady state), 15300 ng·h/mL. For the same molecule, the “side effects undesirable with respect to tolerance” value in data set [2] (80 mg or 120 mg oral once a day for 7 days, healthy male Caucasians) is given as “observed at neither of the doses”; in data set [4], “observed at none of the doses”. Further, the accumulative property result in data set [2] (once a day for 7 days, healthy male Caucasians) is “no accumulative property”; in data set [5] (80 mg once a day for 7 days) it was “no accumulative property”. Besides, the tolerance result in data set [2] (repeated once-a-day dose of about 120 mg or less, human) is on record as “satisfactory”; in data set [5] (80 mg oral once a day for 7 days), “satisfactory”. In addition, in data set [3], the “dose at which SMP-114 exhibits its efficacy” value is recorded as at least 5 mg/kg. In data set [6] (mice with collagen arthritis), the antiarthritic effect entry is given as “antiarthritic effect”. In addition, in data set [6] (once-a-day oral administration), the “minimum effective amount for antiarthritic effect” value is recorded as 5 mg/kg.

These data come from patent US20070082903A1, “Remedy for rheumatoid arthritis” (priority 2003, published 2007).
